Assay results from ChEMBL document CHEMBL1156137, “Synthesis and biological evaluation of 2-amino-7,7-dimethyl 4-substituted-5-oxo-1-(3,4,5-trimethoxy)-1,4,5,6,7,8-hexahydro-quinoline-3-carbonitrile derivatives as potential cytotoxic agents” (Bioorg Med Chem Lett, 2009).

Key:
[1] = Cytotoxicity against mouse EAC cells; format: functional, cell-based, Ehrlich
[2] = Cytotoxicity against mouse EAC cells assessed as nonviable cell at 100 ug/mL relative to doxorubicin; format: functional, Ehrlich
[3] = Cytotoxicity against mouse EAC cells assessed as nonviable cell at 50 ug/mL relative to doxorubicin; format: functional, Ehrlich
[4] = Cytotoxicity against mouse EAC cells assessed as nonviable cell at 25 ug/mL relative to doxorubicin; format: functional, Ehrlich
[5] = Cytotoxicity against mouse EAC cells assessed as nonviable cell at 10 ug/mL relative to doxorubicin; format: functional, Ehrlich
[6] = Mus musculus, Ehrlich, read-out: IC50

| Compound | IC50 ([1]; ehrlich) | Activity [2] | Activity [3] | Activity [4] | Activity [5] | IC50 [1, 6] |
| --- | --- | --- | --- | --- | --- | --- |
| COc1cc(N2C(N)=C(C#N)C(c3ccc(OC)c4ccccc34)C3=C2CC(C)(C)CC3=O)cc(OC)c1OC (stereo not given) | Not Active | 40% | 40% | 30% | 10% |  |
| COc1cc(N2C(N)=C(C#N)C(c3ccccc3Cl)C3=C2CC(C)(C)CC3=O)cc(OC)c1OC (stereo not given) | Not Active | 20% | 20% | 15% | 10% |  |
| COc1ccc(C2C(C#N)=C(N)N(c3cc(OC)c(OC)c(OC)c3)C3=C2C(=O)CC(C)(C)C3)cc1 (stereo not given) | Not Active | 15% | 11% | 1% | 0% |  |
| COc1cc(N2C(N)=C(C#N)C(c3c(OC)ccc4ccccc34)C3=C2CC(C)(C)CC3=O)cc(OC)c1OC (stereo not given) | Not Active | 30% | 10% | 5% | 0% |  |
| COc1cc(N2C(N)=C(C#N)C(/C=C/c3ccccc3)C3=C2CC(C)(C)CC3=O)cc(OC)c1OC (stereo not given) | Not Active | 40% | 30% | 30% | 10% |  |
| COc1cc(N2C(N)=C(C#N)C(c3ccccc3O)C3=C2CC(C)(C)CC3=O)cc(OC)c1OC (stereo not given) | Not Active | 10% | 2% | 0% | 0% |  |
| COc1cc(N2C(N)=C(C#N)C(c3ccc([N+](=O)[O-])cc3)C3=C2CC(C)(C)CC3=O)cc(OC)c1OC (stereo not given) |  | 80% | 70% | 50% | 10% | 25 µM |
| COc1cc(N2C(N)=C(C#N)C(c3ccc4c(c3)OCO4)C3=C2CC(C)(C)CC3=O)cc(OC)c1OC (stereo not given) | Not Active | 40% | 40% | 30% | 10% |  |
| CCOc1cc(C2C(C#N)=C(N)N(c3cc(OC)c(OC)c(OC)c3)C3=C2C(=O)CC(C)(C)C3)ccc1O (stereo not given) | Not Active | 45% | 40% | 10% | 2% |  |
| COc1cc(N2C(N)=C(C#N)C(c3ccc(O)cc3)C3=C2CC(C)(C)CC3=O)cc(OC)c1OC (stereo not given) |  | 100% | 90% | 20% | 10% | 75.8 µM |
| COc1cc(N2C(N)=C(C#N)C(c3cccc([N+](=O)[O-])c3)C3=C2CC(C)(C)CC3=O)cc(OC)c1OC (stereo not given) | Not Active | 30% | 30% | 20% | 5% |  |
| COc1cc(N2C(N)=C(C#N)C(c3ccc(C)o3)C3=C2CC(C)(C)CC3=O)cc(OC)c1OC (stereo not given) |  | 50% | 41% | 31% | 21% | 216 µM |
| COc1cc(C2C(C#N)=C(N)N(c3cc(OC)c(OC)c(OC)c3)C3=C2C(=O)CC(C)(C)C3)ccc1O (stereo not given) | Not Active | 40% | 30% | 20% | 10% |  |
| COc1cc(N2C(N)=C(C#N)C(c3cccs3)C3=C2CC(C)(C)CC3=O)cc(OC)c1OC (stereo not given) | Not Active | 20% | 15% | 10% | 5% |  |
| COc1cc(N2C(N)=C(C#N)C(c3ccc(Cl)cc3Cl)C3=C2CC(C)(C)CC3=O)cc(OC)c1OC (stereo not given) |  | 100% | 95% | 55% | 20% | 94.7 µM |
| COc1cc(N2C(N)=C(C#N)C(c3ccc(C)cc3)C3=C2CC(C)(C)CC3=O)cc(OC)c1OC (stereo not given) |  | 90% | 60% | 50% | 30% | 52.9 µM |
| COc1ccccc1C1C(C#N)=C(N)N(c2cc(OC)c(OC)c(OC)c2)C2=C1C(=O)CC(C)(C)C2 (stereo not given) |  | 100% | 70% | 65% | 30% | 26.6 µM |
| COc1cc(N2C(N)=C(C#N)C(c3ccccc3)C3=C2CC(C)(C)CC3=O)cc(OC)c1OC (stereo not given) | Not Active | 10% | 8% | 6% | 0% |  |
| COc1cc(N2C(N)=C(C#N)C(c3ccc(OC)c(OC)c3OC)C3=C2CC(C)(C)CC3=O)cc(OC)c1OC (stereo not given) | Not Active | 40% | 30% | 30% | 20% |  |
| COc1cc(N2C(N)=C(C#N)C(c3c(O)ccc4ccccc34)C3=C2CC(C)(C)CC3=O)cc(OC)c1OC (stereo not given) |  | 90% | 15% | 10% | 2% | 143 µM |
| COc1cccc2c1C(=O)c1c(O)c3c(c(O)c1C2=O)C[C@@](O)(C(=O)CO)C[C@@H]3O[C@H]1C[C@H](N)[C@H](O)[C@H](C)O1 [DOXORUBICIN] |  | 100% | 68% | 30% | 24% | 68.1 µM |
